{
  "source": "patent US5476840A",
  "about": "“New hexapeptidic derivatives, preparation process and use as medicaments of these new derivatives” (Roussel Uclaf, priority 1992, dated 1995)",
  "key": {"[1]": {"test_system": "demedullated rat", "test": "Vasoconstrictive activity in a demedullated rat (increase in mean arterial pressure)", "assay_type": "in vivo", "settings": "dose 10 mg/kg, venous route, demedullated male Sprague-Dawley rat", "procedure": "Male Sprague-Dawley rats are anaesthetized with Nembutal (60 mg/kg) injected by intraperitoneal route. The animals are then demedullated, put under assisted respiration (1 ml/100 g--50 insufflations per minute), then the vagus nerves are sectioned. A carotid artery is catheterized to record the arterial pressure and the products to be studied are injected into the pudendal vein.\nThe animals receive endothelin 1 or the compound to be tested as cumulative injections by venous route, the administrations being spaced 2 minutes apart.\nThe increase in mean arterial pressure (MAP) induced by each compound is measured and expressed as a percentage variation relative to the initial pressure."}, "[2]": {"test_system": "pressure response to endothelin", "test": "Antagonism of the effects of endothelin in a demedullated rat (inhibition of the pressure response to endothelin 1)", "assay_type": "in vivo", "procedure": "Male Sprague-Dawley rats are anaesthetized with Nembutal (60 mg/kg) injected by intraperitoneal route. The animals are then demedullated, put under assisted respiration (1 ml/100 g--50 insufflations per minute), then the vagus nerves are sectioned. A carotid artery is catheterized to record the arterial pressure and the products to be studied are injected into the pudendal vein. Ten minutes after the intravenous injection of the solvent or compounds to be tested, the animals receive administrations of endothelin 1 in a cumulative manner (1, 3, 10 and 30 μg/kg i.v.) every 2 minutes. The antagonistic activity is expressed as a percentage of the inhibition of the pressure response to endothelin administered alone, at doses of 3 and 10 μg/kg."}},
  "note": "Ends that are not written are not given here.",
  "data": [
    {"substance": "HAAIIW [Example 1]", "values": [
      {"measurement": "% increase of MAP", "setting": "[1]", "value": "+8%"},
      {"measurement": "Percent change in pressure response to endothelin (negative = reduction)", "setting": "[2]; dose 5 μg/kg i.v., 3 μg endothelin", "value": -27},
      {"measurement": "Percent change in pressure response to endothelin (negative = reduction)", "setting": "[2]; dose 5 μg/kg i.v., 10 μg endothelin", "value": -19},
      {"measurement": "Percent change in pressure response to endothelin (negative = reduction)", "setting": "[2]; dose 10 μg/kg i.v., 3 μg endothelin", "value": -60},
      {"measurement": "Percent change in pressure response to endothelin (negative = reduction)", "setting": "[2]; dose 10 μg/kg i.v., 10 μg endothelin", "value": -33}
    ]}
  ]
}
